Test system: Plasmodium berghei
Experiment: In vivo antimalarial activity against Plasmodium berghei infected mouse model assessed as survival time at 8 mg/kg, po in presence of Mefloquine hydrochloride

## CO[C@H]1O[C@@H]2O[C@@]3(C)CC[C@H]4[C@H](C)CC[C@@H]([C@H]1C)[C@@]24OO3
  survival time: 23 days

From ChEMBL document CHEMBL5257025, “Artemisinin-Derived Dimers: Potent Antimalarial and Anticancer Agents” (J Med Chem, 2016)
